Results published in patent US20150368248A1, “2-SUBSTITUTED-6-BIARYLMETHYLAMINO-9-CYCLOPENTYL-9H-PURINE DERIVATIVES, USE THEREOF AS MEDICAMENTS, AND PHARMACEUTICAL COMPOSITIONS” (UNIVERZITA PALACKEHO V OLOMOUCI, priority 2013, published 2015).

Legend:
CDK1/CDK2 = test: Kinase inhibition assays using cell-free extracts; assay type: biochemical, human; settings: 0.03 μM
Experimental: Whole cell extracts were prepared by lysing Hep3B cells with a buffer containing 20 mM Tris pH 8.0, 100 mM NaCl, 1 mM EDTA and 0.5% NP-40. 100 μg of extract was used for immunoprecipitation at 4° C. for 4 hours either with 1 μg of the anti-CDK2 antibody M2 (Santa Cruz Biotechnology, Santa Cruz, USA) or with 1 μg of the anti-cyclin B1 antibody GNS1 (Santa Cruz Biotechnology, Santa Cruz, USA). The precipitated proteins were washed three times with lysis buffer followed by one wash with the kinase buffer (50 mM HEPES pH 7.5, 10 mM MgCl2 and 1 mM DTT) and subsequently resuspended in 20 μl kinase buffer containing 5 μCi [γ-^32P]ATP
(PerkinElmer, Santa Clara, USA), 1 μg histone H1 (New England Biolabs, Ipswich, USA) and the respective concentration of inhibitor. After incubation for 60 minutes at 30° C., the supernatant was boiled in sample buffer containing 60 mM Tris/HCl pH6.8, 10% Glycerol, 2% SDS, 5% β-mercaptoethanol, 0.02% Bromophenol Blue. The proteins were separated by SDS-PAGE and blotted onto nitrocellulose membrane. Thereafter, the membrane was stained with Ponceau S to check equal loading and analyzed by autoradiography.

HepG2 or PLC cells = test: BrdU incorporation in cultured cells; assay type: cell-based, human; settings: 1 μM, 24 hours
Experimental: BrdU incorporation into cell nuclei directly indicates cell proliferation. Cultured cells were grown in medium containing 10 μM 5-bromo-2′-deoxy-uridine (BrdU) for 1 hour. After removing labeling medium, cells were fixed and DNA denatured with a fixing/denaturing solution containing 2 M HCl for 30 minutes at 37° C. To analyze BrdU incorporation in vivo, 200 μl Ringer solution containing 1 mg BrdU was intraperitoneally injected into xenografted mice 2 hours prior to analysis. Mice were sacrificed and tumor tissue was fixed in 4% formaldehyde and processed for immunohistochemistry. The incorporation of BrdU into cellular DNA was detected using a monoclonal anti-BrdU antibody (Sigma, St. Louis, USA) followed by incubation with a peroxidase-conjugated secondary antibodies (Calbiochem, LaJolla, USA) at dilutions of 1:10,000.

HepG2 and PLC cells = test: Flow cytometry of cellular DNA content; assay type: cell-based, human; settings: 24 hours
Experimental: The analysis of cellular DNA content was performed with a multicolor BD LSRFortessa cell analyzer (Becton Dickinson, Franklin Lakes, USA). Prior to the cytofluorometric measurement, about 5×10^5 cells were washed with phosphate buffered saline (PBS), fixed in 70% ethanol, washed again with PBS and treated with 100 μg RNAse A/50 μg propidium iodide per ml for 10 minutes to stain cellular DNA. The percentage of cells in the various cell cycle positions were calculated using a software package from the same manufacturer.

NC1CCC(Nc2nc(NCc3ccc(-c4ccco4)nc3)c3ncn(C4CCCC4)c3n2)CC1 (stereo not drawn) [BP14, N^2-(4-amino-cyclohexyl)-9-cyclopentyl-N^6-(6-furan-2-yl-pyridin-3-ylmethyl)-9H-purine-2,6-diamine]
CDK1/CDK2 activity in cell-free extracts (CDK1/CDK2): significantly reduced CDK1/CDK2 activity | decrease of BrdU incorporation as compared to control (HepG2 or PLC cells): more than 2 fold | cell cycle distribution (HepG2 and PLC cells): accumulation of HepG2 and PLC cells in the G2 phase
